The values that follow come from patent US20230265118A1, “SALT OF CURCUMIN MONOGLUCURONIDE” (THERABIOPHARMA INC., priority 2020, published 2023).

Some results are limits rather than exact numbers.

A short description of data set [1]: Solubility in distilled water. The settings on record: 100 mg in 1 mL of distilled water. The format is physicochemical.
Data set [2] can be described thus: Stability in water-methanol solution (residual ratio by HPLC). The format is physicochemical. The settings on record: for Residual Ratio: dissolved in 15 mL water-methanol (1:1), left at room temperature for 35 days, HPLC; for Half-Life: solution in water-methanol (1:1), room temperature. The procedure: A curcumin monoglucuronic acid conjugate (3.62 mg) and a sodium salt of the curcumin monoglucuronic acid conjugate (3.44 mg) were each dissolved in 15 mL of water-methanol (1:1). The prepared solution was left at room temperature for 35 days, and a residual ratio was determined by HPLC.

Regarding `COc1cc(/C=C/C(=O)CC(=O)/C=C/c2ccc(O[C@@H]3O[C@H](C(=O)O)[C@@H](O)[C@H](O)[C@H]3O)c(OC)c2)ccc1O` [curcumin monoglucuronic acid conjugate, curcumin monoglucuronide], in data set [1], the “Solubility in distilled water” value is recorded as “hardly dissolved”. In data set [2], the “Residual Ratio” value is 80.8% and the Half-Life turned out to be 126.1 days.
For `COc1cc(/C=C/C(=O)CC(=O)/C=C/c2ccc(O[C@@H]3O[C@H](C(=O)[O-])[C@@H](O)[C@H](O)[C@H]3O)c(OC)c2)ccc1O.[Na+]` [sodium(2S,3S,4S,5R,6S)-3,4,5-trihydroxy-6-(4-((1E,6E)-7-(4-hydroxy-3-methoxyphenyl)-3,5-dioxohepta-1,6-dien-1-yl)-2-methoxyphenoxy)tetrahydro-2H-pyran-2-carboxylate], in that order: greater than 100 mg/mL, 93.8% and 378.4 days.
